Assay results published in patent US20160237406A1, “SEBOCYTES, SEBOCYTE CELL LINES AND APPLICATIONS THEREOF” (priority 2001, published 2016).

Tested on: immortalized sebocytes (SZ95) and clones
Assay: Growth behavior / cell proliferation test (4-methylumbelliferyl heptanoate fluorescence assay)
Assay type: cell-based, human
Settings: for proliferation response of clones stimulated by retinoids: other clones, corresponds to response of normal human epidermal keratinocytes; for proliferation response of clones stimulated by retinoids / proliferation response of clones inhibited by retinoids: 10^-7 M retinoid, 9 days, FIG. 9; for proliferation response of clones inhibited by retinoids: some clones, order 13-cis-retinoic acid>all-trans-retinoic acid>>Acitretin
Protocol: _Cells were seeded in 96 well culture plates at densities of 0.5 to 4×10^3 cell/well. Cell proliferation was assessed by the 4-methylumbelliferylheptanoatefluorescence assay and measured automatically (Zouboulis et al. Melanoma. Res. 1991; 1:91-95).
To this extent, on the day of evaluation, the culture medium was removed, the cells were washed twice with PBS and […] 100 μg solution of 4-methylumbelliferyl heptanoate (Sigma, Deisenhofen, Germany) in PBS were added to each well. The plates were then incubated at 37° C. for 30 minutes and released fluorescence was measured by a suitable fluorescence measuring device (Titertec-Fluoroscan II; Flow, Meckenheim, Germany). Fluorescence units were obtained at 355 nm excitation and 460 nm emission filters.
_5α-dihydrctestosterone (5α-DHT; Sigma) was dissolved in DMSO and subsequently in serum-free, phenol-free modified DMEM/Ham's F12-Medium (1:1) (Gibco-BRL) with 2 mM n-Acetyl-L-alanyl-L-glutamine which was supplemented with 5 ng/ml EGF, 50 μg/ml bovine pituary extract, 1 mg/ml fatty acid-free bovine serum albumine (Boehringer Mannheim) and 50 μg/ml gentamycine to obtain a final concentration of 10^−6 M 5α-DHT and 0.1% DMSO. 0.1% DMSO alone served as a control. The cells (0.5 to 2×10^3/well) were treated with 5α-DHT for 18 days.
For the treatment with retinoids, all-trans-retinoic acid, 13-cis-retinoic acid and acitretin were dissolved in DMSO and subsequently placed in serum-free modified DME-Medium/Ham's F12-Medium (1:1) with […] N-Acetyl-L-alanyl-L-glutamine which was supplemented with 5 ng/ml EGE, 50 μg/ml bovine pituary extract, 1 mg/ml fatty acid-free bovine serum albumine and 50·μg/ml gentamycine to obtain a final concentration of 10^−7 M retinoid and 0,1% DMSO. 0,1% DMSO alone served as a control. Retinoids were handled under dim amber light. The cells (0.5 to 1×10^3/well) were treated with the retinoids for 9 days.

| SMILES | proliferation response of clones stimulated by retinoids (serum-free medium) | proliferation response of clones inhibited by retinoids (serum-free medium) | effect on proliferation of the cells (10^-6 M 5α-DHT, serum-free medium, after the 8th day, vs control (p<0.05; p<0.01), FIG. 8) | population doubling time (exemplary sebocyte clone, seeding 2.000/well, serum-free medium supplemented with 10^-6 M 5α-DHT, 18 days, control 136 hours) [h] |
| --- | --- | --- | --- | --- |
| CC1=C(/C=C/C(C)=C/C=C/C(C)=C/C(=O)O)C(C)(C)CCC1 [all-trans-retinoic acid] | stimulated in proliferation | inhibition of proliferation |  |  |
| C[C@]12CCC(=O)C[C@@H]1CC[C@@H]1[C@@H]2CC[C@]2(C)[C@@H](O)CC[C@@H]12 [5α-DHT, 5α-dihydrctestosterone] |  |  | increased the proliferation of the cells significantly | 53.7 |
| COc1cc(C)c(/C=C/C(C)=C/C=C/C(C)=C/C(=O)O)c(C)c1C [Acitretin, acitretin] |  | inhibition of proliferation |  |  |
| CC1=C(/C=C/C(C)=C/C=C/C(C)=C\C(=O)O)C(C)(C)CCC1 [13-cis-retinoic acid] | stimulated in proliferation | inhibition of proliferation |  |  |
